According to patent publication US20070021357A1, “Treatment of inflammatory conditions” (Dynamis Therapeutics, Inc., priority 2005, published 2007):
“And” between values parts separate entries of the source, which are not always exact repeats. Equal values may be shown once. One block for each compound: values may come before it.

Tests used:
[1] = biological target: T1, Calf skin collagen Type I (Bos taurus, UniProt P02453+P02465); test: 3DG-induced collagen crosslinking, CNBr digestion and SDS-PAGE; format: biochemical; conditions: 37° C., 24 hours
T1 construct: Calf skin collagen Type I (1.3 mg; Sigma); purchased Sigma; host or cells: calf skin
T1 sequence (P02453 162-1217 limits assumed): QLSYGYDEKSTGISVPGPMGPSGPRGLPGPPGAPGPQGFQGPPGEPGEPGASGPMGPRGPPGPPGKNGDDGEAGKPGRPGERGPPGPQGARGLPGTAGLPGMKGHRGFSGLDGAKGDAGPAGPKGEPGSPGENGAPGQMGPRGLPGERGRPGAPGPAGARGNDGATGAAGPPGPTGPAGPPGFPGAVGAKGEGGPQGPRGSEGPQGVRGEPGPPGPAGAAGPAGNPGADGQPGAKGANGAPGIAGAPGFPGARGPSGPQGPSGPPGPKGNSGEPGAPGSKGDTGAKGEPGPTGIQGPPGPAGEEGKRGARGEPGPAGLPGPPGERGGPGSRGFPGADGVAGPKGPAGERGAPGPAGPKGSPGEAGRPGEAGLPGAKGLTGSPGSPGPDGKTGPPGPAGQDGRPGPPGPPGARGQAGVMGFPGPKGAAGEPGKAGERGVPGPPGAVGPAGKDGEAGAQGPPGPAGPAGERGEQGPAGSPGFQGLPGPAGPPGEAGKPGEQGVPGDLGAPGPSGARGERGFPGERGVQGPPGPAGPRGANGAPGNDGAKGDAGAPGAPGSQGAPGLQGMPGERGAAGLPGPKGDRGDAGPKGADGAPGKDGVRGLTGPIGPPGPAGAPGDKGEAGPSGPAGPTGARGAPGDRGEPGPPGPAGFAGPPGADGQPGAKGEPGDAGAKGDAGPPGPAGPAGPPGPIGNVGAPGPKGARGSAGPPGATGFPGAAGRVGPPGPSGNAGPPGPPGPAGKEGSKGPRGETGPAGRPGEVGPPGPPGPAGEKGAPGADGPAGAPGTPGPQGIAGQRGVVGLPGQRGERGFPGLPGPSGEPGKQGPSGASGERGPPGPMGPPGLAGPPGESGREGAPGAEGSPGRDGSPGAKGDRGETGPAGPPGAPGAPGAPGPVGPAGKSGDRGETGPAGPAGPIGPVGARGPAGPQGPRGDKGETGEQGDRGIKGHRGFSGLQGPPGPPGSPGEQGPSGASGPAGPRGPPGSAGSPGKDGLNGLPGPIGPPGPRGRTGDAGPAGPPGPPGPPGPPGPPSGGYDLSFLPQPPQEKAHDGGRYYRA
T1 sequence (P02465 80-1117 limits assumed): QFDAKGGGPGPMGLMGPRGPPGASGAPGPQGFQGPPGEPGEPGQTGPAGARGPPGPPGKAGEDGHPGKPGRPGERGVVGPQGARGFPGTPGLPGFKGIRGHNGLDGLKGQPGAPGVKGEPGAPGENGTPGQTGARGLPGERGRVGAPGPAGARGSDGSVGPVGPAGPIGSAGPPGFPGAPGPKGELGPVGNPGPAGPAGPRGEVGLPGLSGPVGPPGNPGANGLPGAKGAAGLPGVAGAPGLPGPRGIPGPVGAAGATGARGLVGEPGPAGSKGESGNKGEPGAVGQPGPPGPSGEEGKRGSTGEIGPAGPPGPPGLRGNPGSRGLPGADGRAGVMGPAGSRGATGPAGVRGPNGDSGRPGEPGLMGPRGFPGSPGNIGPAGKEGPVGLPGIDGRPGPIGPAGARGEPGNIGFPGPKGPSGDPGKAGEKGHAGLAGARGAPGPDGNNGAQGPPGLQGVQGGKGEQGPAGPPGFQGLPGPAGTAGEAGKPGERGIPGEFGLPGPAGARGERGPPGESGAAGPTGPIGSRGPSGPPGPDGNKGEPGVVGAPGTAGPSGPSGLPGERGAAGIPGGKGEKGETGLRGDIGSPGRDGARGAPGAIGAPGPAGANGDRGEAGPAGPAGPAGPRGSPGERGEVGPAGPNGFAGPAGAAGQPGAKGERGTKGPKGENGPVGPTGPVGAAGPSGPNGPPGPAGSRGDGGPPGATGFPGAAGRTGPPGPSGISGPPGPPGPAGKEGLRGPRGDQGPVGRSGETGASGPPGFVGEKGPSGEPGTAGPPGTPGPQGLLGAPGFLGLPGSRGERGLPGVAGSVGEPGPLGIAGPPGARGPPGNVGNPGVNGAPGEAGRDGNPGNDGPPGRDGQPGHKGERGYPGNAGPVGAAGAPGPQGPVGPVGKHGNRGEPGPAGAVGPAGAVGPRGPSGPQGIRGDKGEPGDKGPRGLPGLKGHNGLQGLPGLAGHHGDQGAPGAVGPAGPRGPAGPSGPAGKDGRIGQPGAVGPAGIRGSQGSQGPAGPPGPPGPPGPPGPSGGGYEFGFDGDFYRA
Protocol: Collagen type I was treated with 3DG in the presence or absence of arginine. The samples were subjected to cyanogen bromide (CNBr) digestion, electrophoresed on a 16.5% SDS Tris-tricine gel, and then the gels were processed using silver stain techniques to visualize the proteins. Lane 1 contains molecular weight marker standards. Lanes 2 and 5 contain 10 and 20 μl of the collagen mixture following CNBr digestion. Lanes 3 and 6 contain the collagen mixture treated with 3DG and then digested with CNBr, and loaded at 10 and 20 μl, respectively. Lanes 4 and 7 contain the mixture of collagen incubated with 5 mM 3DG and 10 mM arginine and then digested with CNBr, and loaded at 10 and 20 μl, respectively.
Collagen I was incubated in the presence or absence of 3DG in vitro. Calf skin collagen Type I (1.3 mg; Sigma) was incubated in 20 mM Na-phosphate buffer, pH 7.25, either alone, with 5 mM 3DG, or with 5 mM 3DG plus 10 mM arginine, in a total volume of 1 ml at 37° C. for 24 hours and then frozen and lyophilized. The residue was dissolved in 0.5 ml of 70% formic acid and cyanogen bromide was added (20:1, w/w). This solution was incubated at 30° C. for 18 hours. […] The extent of collagen crosslinking was determined by applying equal volumes of sample and analyzing by SDS-PAGE electrophoresis (16.5% Tris-tricine gel), as determined by the effects of 3DG on the migration of collagen.

3DG [2] = test: Plasma 3DG levels in diabetic and non-diabetic rats; format: in vivo; conditions: 50 mg/kg body weight injections in saline, within one week
Protocol: A cohort of twelve diabetic rats was divided into two groups of six. The first group received saline-only injections, and the second received injections of 3-O-methyl sorbitollysine (50 mg/kg body weight) in saline solution. The same procedure was conducted on a cohort of twelve non-diabetic rats.

diabetic rats = test: Skin elasticity/muscle strength measurement on alert, restrained rats; format: in vivo; conditions: preliminary data
Protocol: FIG. 15 is graphic illustration of the effects of DYN 12 (3-O-methylsorbitollysine) treatment on skin elasticity. Diabetic or normal rats were treated with DYN 12 (50 mg/kg daily) or saline for eight weeks and then subjected to skin elasticity tests. The four groups used included diabetic controls (saline injection; solid black bar), diabetics treated with DYN 12 (open bar), normal animal controls (saline injections; stippled bar), and normal animals treated with DYN 12 (cross-hatched bar). Data are expressed in kilopascals (kPA) and are shown as averages of the results obtained with each particular group of test subjects. Measurements were taken on the hind leg of the test subjects and were taken on an alert animal restrained by a technician.
Skin elasticity measurements were also taken on the test subjects as described above, but without sedating the test animals before measurement. FIG. 15 illustrates skin elasticity measurements taken on the hind leg of the test subjects while the subjects were alert and being restrained by a technician.
In these experiments, the animals were fiercely fighting restraint and the results are different.

[3] = Locus of 3-O-methyl sorbitollysine uptake in vivo (tissues, urine, plasma); design: species or system rats
Protocol: […] Urine was collected for 3 hours, after which the rats were sacrificed. The tissues to be analyzed were removed and freeze clamped in liquid nitrogen. Perchloric acid extracts of the tissues were used for metabolite analysis. The tissues examined were taken from the brain, heart, muscle, sciatic nerve, spleen, pancreas, liver, and kidney. Plasma was also analyzed.

STZ-diabetic rats = test: Skin elasticity measurement (vacuum pull) in STZ-diabetic and normal rats; format: in vivo; conditions: 50 mg/kg daily, eight weeks, p=0.39
Protocol: Experiments were performed to determine the effects of DYN 12 on the loss of skin elasticity associated with diabetes. To this end, two groups of STZ-diabetic rats and two groups of normal rats were subjected to treatment with DYN 12 or saline. One group of STZ-diabetic rats (n=9) received daily subcutaneous injections of DYN 12 at 50 mg/kg for eight weeks, as did one group of normal rats (n=6). A group of control diabetic rats (n=10) and a group of normal rats (n=6) received saline instead of DYN 12. One rat was removed from the diabetic DYN 12 group after 2 weeks because its blood glucose readings were inconsistent (too low) with other diabetic rats.
A non-invasive procedure based on CyberDERM, Inc. technology utilizing a skin elasticity measurement device was used to test the effects of DYN 12 treatment on skin elasticity. The procedure provides for non-invasive measurement of skin elasticity based upon the amount of vacuum pull required to displace skin. A suction cup probe is adhered to an area of shaved skin in order to form an airtight seal. Then, a vacuum is applied to the area of the skin inside the suction cup until the skin is displaced past a sensor located inside the probe. Accordingly, the more pressure that is required to displace the skin, the less elastic the skin is.

3DG [4] = conditions: Kappler et al., 2002; cited from earlier work
mouse mesangial cells = test: Type IV collagen production in kidney cells in vitro; format: cell-based
Protocol: Type IV collagen production was measured in mouse mesangial cells. Controls (grown with […]) produced 300 ng of Type IV collagen per 10,000 cells, whereas fructoselysine treated cells (5 or 10 mM fructoselysine with 10 mM glucose) produced 560 and 1100 ng/10,000 cells.

[5] = tested on: kinase activity in the kidney cortex; test: Radioactive assay of FL3P production from FL and ATP; format: biochemical, pig; conditions: 10 mM FL, 10 mM γ33P-ATP, 30 minutes at 37° C., pH 7.5
Protocol: A 3 g sample of fresh pig kidney cortex was homogenized in 9 ml of 50 mM Tris.HCl containing 150 mM KCl, 5 mM DTT, 15 mM MgCl2, pH 7.5. This was centrifuged at 10,000 g for 30 minutes, and then the supernatant was centrifuged at 100,000 g for 60 minutes. Ammonium sulfate was added to 60% saturation. After 1 hour at 4° C. the precipitate was collected by centrifugation and dissolved in 5 ml. of original buffer. A 2 ml aliquot of this solution was incubated with 10 mM ATP and 10 mM of FL (prepared as in Example 1, above) for 2 hours at 37° C. The reaction was quenched with 300 μl of perchloric acid, centrifuged to remove protein, and desalted on a column of Sephadex G 10 (5×10 cm). ^31P NMR analysis of the reaction mixture detected formation of FL3P.
Based on the proof of kinase activity thus obtained, a radioactive assay was developed. This assay was designed to take advantage of the binding to Dow-50 cation exchange resin by FL3P. This characteristic of FL3P was discovered during efforts to isolate it. […] A 0.5 ml volume of supernatant was pipetted into 10 ml of Ecoscint A and counted. […] The relationship between rates of FL3P production and enzyme concentration was determined using triplicate determinations with 1, 2, and 4 mg of protein for 30 minutes at 37° C. Blanks run concurrently without FL were subtracted and the data recorded. […]

amadorase = test: Amadorase-dependent production of 3DG in vitro; format: biochemical; conditions: FL 2.6 mM, after 24 hours
[6] = design: species or system human; conditions: in vivo
Protocol: 260 g of casein, 120 g of glucose and 720 ml of water were mixed to give a homogeneous mixture. This mixture was transferred to a metal plate and heated at 65° C. for 68 hours. The resulting cake was then pulverized to a coarse powder.
Volunteers spent two days on a fructoselysine-free diet and then consumed 22.5 g of the food product prepared as described herein, thus effectively receiving a 2 gram dose of fructoselysine. Urine was collected at 2 hour intervals for 14 hours and a final collection was made at 24 hours.
FL was measured by HPLC with a Waters 996 diode Array using a Waters C18 Free Amino Acid column at 46° C. and a gradient elution system of acetonitrile-methyl alcohol-water (45:15:40) into acetonitrile-sodium acetate-water (6:2:92) at 1 ml/min. Quantitation employed an internal standard of meglumine.
3DF was measured by HPLC after deionization of the sample. Analyses were performed on a Dionex DX-500 HPLC system employing a PA1 column (Dionex) and eluting with 32 mM sodium hydroxide at 1 ml/min. Quantitation was performed from standard curves obtained daily with synthetic 3DF.
3DG was measured by GC-MS after deionization of the sample. 3DG was derivatized with a 10-fold excess of diaminonaphthalene in PBS. […] Quantitation of 3DG employed selected ion monitoring using an internal standard of U-13C-3DG.

3-deoxyglucosone = test: Reduction of urinary and plasma 3-deoxyglucosone in rats after intraperitoneal injection; format: in vivo; conditions: 10 μmols intraperitoneal, plasma at end of three hours vs before
Protocol: Urine was collected from six rats for three hours. A plasma sample was also obtained. The animals were then given 10 μmols of either sorbitollysine, mannitollysine, or galactitollysine by intraperitoneal injection. Urine was collected for another three hours, and a plasma sample obtained at the end of the three hours.
a. 3-deoxyglucosone was measured in the samples, as described in Example 5, below, and variable volumes were normalized to creatinine. The average reduction of urinary 3-deoxyglucosone was 50% by sorbitollysine, 35% by mannitollysine and 35% by galactitollysine. Plasma 3-deoxyglucosone was reduced 40% by sorbitollysine, 58% by mannitollysine and 50% by galactitollysine.
Three rats were treated as in b), immediately above, except meglumine (100 μmols) was injected intraperitoneally instead of the above-mentioned lysine derivatives. Three hours after the injection the average 3-deoxyglucosone concentrations in the urine were decreased 42%.
3DG was measured by GC-MS after deionization of the sample. 3DG was derivatized with a 10-fold excess of diaminonaphthalene in PBS. Ethyl acetate extraction gave a salt free fraction which was converted to the trimethyl silyl ethers with Tri-Sil (Pierce). Analysis was performed on a Hewlett-Packard 5890 selected ion monitoring GC-MS system. GC was performed on a fused silica capillary column (DB-5.25 mx.25 mm) using the following temperature program: injector port 250° C., initial column temperature 150° C. which is held for 1 minute, then increased to 290° C. at 16° C./minute and held for 15 minutes. Quantitation of 3DG employed selected ion monitoring using an internal standard of U-13C-3DG.

3DG [7] = conditions: disclosed in WO 98/33492; cited from earlier work

SMILES: O=CC(=O)C[C@H](O)[C@H](O)CO [3DG, 3-deoxyglucosone, reference compound]
collagen crosslinking (migration of collagen on gel) ([1]; collagen I with 5 mM 3DG): migrate as if it had a higher molecular weight

only tissue extract found to contain the compound ([3]; brain, heart, muscle, sciatic nerve, spleen, pancreas, liver, kidney examined 3 hours after i.p. injection): kidney
SMILES: COC(C(O)CNCCCCC(N)C(=O)O)C(O)C(O)CO (centres unmarked) [DYN 12, 3-O-methylsorbitollysine]
plasma 3DG levels (3DG [2]; Diabetic rats): 0.44 ± 0.10 µM | plasma 3DG levels (3DG [2]; Non-diabetic rats): 0.13 ± 0.02 µM | muscle strength measured while alert, vs diabetic rats not so treated (diabetic rats): stronger muscle strength | total 3OMeSL recovered ([3]; individual rats, urine plus kidneys, 13500 nmols injected, listed as 3OMeSL, in nmol): 12355 and 5235 and 13011 and 8257 and 7151 and 7193 | % 3OMeSL recovered ([3]; individual rats, urine plus kidneys, of injected dose, listed as 3OMeSL): 91.5% and 38.8% and 96.4% and 61.2% and 53.0% and 53.3% | elasticity value in treated diabetic rats compared with non-diabetic rats treated with saline (STZ-diabetic rats): not statistically different | 3DG levels in the plasma of diabetic and non-diabetic animals (3DG [4]): reduces 3DG levels

approximate FL3P synthesis rate [5]: ~20 nmols/hr/mg protein | 3DG (amadorase; Reaction 1: Amadorase +, ATP +): 1.58 mM | FL3P (amadorase; Reaction 1: Amadorase +, ATP +): 0.2 mM | 3DG (amadorase; Reaction 2: Amadorase +, ATP −): 0.08 mM | FL3P (amadorase; Reaction 2: Amadorase +, ATP −): 0 mM | 3DG (amadorase; Reaction 3: Amadorase −, ATP +): 0.09 mM | FL3P (amadorase; Reaction 3: Amadorase −, ATP +): 0 mM | 3DG (amadorase; Reaction 4: Amadorase −, ATP −): 0.08 mM | FL3P (amadorase; Reaction 4: Amadorase −, ATP −): 0 mM | time of peak urinary 3DF excretion after the bolus [6]: about 4 hours
SMILES: NC(CCCCNCC(=O)C(O)C(O)C(O)CO)C(=O)O (centres unmarked) [FL, 1-deoxy-1-(ε-aminolysine)-fructose]
Type IV collagen produced (mouse mesangial cells; 5 mM fructoselysine with 10 mM glucose): 560 ng/10,000 cells | Type IV collagen produced (mouse mesangial cells; 10 mM fructoselysine with 10 mM glucose): 1100 ng/10,000 cells

SMILES: N=C(N)NCCC[C@H](N)C(=O)O [arginine]
inhibition of 3DG induced collagen crosslinking (high molecular weight bands on gel) ([1]; collagen I with 5 mM 3DG plus 10 mM arginine): fewer high molecular bands

SMILES: N[C@@H](CCCCNC[C@H](O)[C@@H](O)[C@@H](O)[C@H](O)CO)C(=O)O [galactitollysine]
Plasma 3-deoxyglucosone reduced (3-deoxyglucosone): 50% | urinary or plasma 3DG (3DG [7]): can be reduced

SMILES: N[C@@H](CCCCNC[C@@H](O)[C@@H](O)[C@H](O)[C@H](O)CO)C(=O)O [mannitollysine]
Plasma 3-deoxyglucosone reduced (3-deoxyglucosone): 58% | urinary or plasma 3DG (3DG [7]): can be reduced

SMILES: CNC[C@H](O)[C@@H](O)[C@H](O)[C@H](O)CO [meglumine, reference compound]
urinary or plasma 3DG (3DG [7]): can be reduced

SMILES: N[C@@H](CCCCNC[C@H](O)[C@@H](O)[C@H](O)[C@H](O)CO)C(=O)O [sorbitollysine]
Plasma 3-deoxyglucosone reduced (3-deoxyglucosone): 40% | urinary or plasma 3DG (3DG [7]): can be reduced
